Reference: US8497245B2, “Trypsin-like serine protease inhibitors, their preparation and use as selective inhibitors of the clotting factors IIa and Xa” (The Medicines Company (Leipzig) GmbH, priority 2010, dated 2013)
Where a name gives a salt, the structure may show the parent alone. Read-outs that look alike come from different tables or passages of the source.

Key:
[1] = test system: thrombin and FXa; conditions: literature value; cited from earlier work
[2] = biological target: T1, human Factor Xa (Homo sapiens, UniProt P00742); assay: Inhibition constants for human factor Xa, chromogenic substrate assay; type: biochemical; conditions: 25° C., Pefachrome FXa substrate, average of at least three determinations; read-out: Ki h FXa
T1 construct: human Factor Xa from Enzyme Research Laboratories; purchased Enzyme Research Laboratories
T1 sequence (P00742 235-488 limits assumed): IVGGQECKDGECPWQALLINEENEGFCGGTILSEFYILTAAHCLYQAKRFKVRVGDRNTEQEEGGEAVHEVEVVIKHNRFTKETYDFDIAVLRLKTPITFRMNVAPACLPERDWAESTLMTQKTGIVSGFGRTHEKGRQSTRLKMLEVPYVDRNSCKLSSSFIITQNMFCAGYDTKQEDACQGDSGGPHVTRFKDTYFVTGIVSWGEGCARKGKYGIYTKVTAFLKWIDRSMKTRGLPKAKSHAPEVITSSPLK
T1 sequence (P00742 41-179 partner limits assumed): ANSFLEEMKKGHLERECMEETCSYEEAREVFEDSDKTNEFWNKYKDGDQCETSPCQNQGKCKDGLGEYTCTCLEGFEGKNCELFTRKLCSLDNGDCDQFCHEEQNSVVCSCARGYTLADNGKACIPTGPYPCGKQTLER
In short: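 Purified enzymes assayed in TBS (0.05 M Tris, 0.154 M NaCl, 2% ethanol, pH 8.0); p-nitroaniline release followed at 405 nm. Ki from equilibrium rates fitted to the competitive-inhibition rate equation, averaged over at least three determinations.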

[3] = biological target: T2, human factor IIa (human alpha-thrombin) (Homo sapiens, UniProt P00734); assay: Inhibition constants for human factor IIa, chromogenic substrate assay; type: biochemical; conditions: 25° C., Pefachrome tPA substrate, average of at least three determinations; read-out: Ki h FIIa
T2 construct: human alpha-thrombin from Enzyme Research Laboratories; purchased Enzyme Research Laboratories
In short: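 Inhibitor/enzyme dissociation constants reflect competitive-model fits of equilibrium rates, averaged over at least three determinations. Rates were taken from the absorbance change at 405 nm as p-nitroaniline was cleaved from substrate by purified thrombin or factor Xa in 0.05 M Tris buffer, pH 8.0.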

[4] = biological target: T3, Subcomponent "s" of Human Complement Component 1 (h C1s) (Homo sapiens, UniProt P09871); assay: Inhibition of human C1s (reference enzyme); type: biochemical; conditions: S-2314 substrate; read-out: Ki h Cls
T3 construct: purchased Calbiochem
T3 sequence (P09871 438-688 limits assumed): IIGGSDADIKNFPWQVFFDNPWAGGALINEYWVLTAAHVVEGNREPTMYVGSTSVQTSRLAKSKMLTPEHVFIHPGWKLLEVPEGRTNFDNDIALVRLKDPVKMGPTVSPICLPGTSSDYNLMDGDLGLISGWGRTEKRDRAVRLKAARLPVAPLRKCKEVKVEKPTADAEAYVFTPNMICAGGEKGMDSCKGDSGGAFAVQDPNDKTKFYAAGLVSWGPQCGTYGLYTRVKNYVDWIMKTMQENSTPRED
T3 sequence (P09871 16-437 partner limits assumed): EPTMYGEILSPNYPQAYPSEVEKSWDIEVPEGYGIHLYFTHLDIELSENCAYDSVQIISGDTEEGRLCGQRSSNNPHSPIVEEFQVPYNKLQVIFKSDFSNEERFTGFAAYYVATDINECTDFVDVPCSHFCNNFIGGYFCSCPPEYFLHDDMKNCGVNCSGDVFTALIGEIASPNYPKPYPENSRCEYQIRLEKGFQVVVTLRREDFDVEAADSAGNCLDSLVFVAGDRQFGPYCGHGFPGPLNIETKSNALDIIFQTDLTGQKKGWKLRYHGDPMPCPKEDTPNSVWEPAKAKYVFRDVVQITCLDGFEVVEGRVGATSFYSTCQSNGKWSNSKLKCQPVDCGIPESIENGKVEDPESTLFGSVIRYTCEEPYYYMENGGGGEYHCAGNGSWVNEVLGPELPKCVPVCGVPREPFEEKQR
In short: (§1)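 Abs 405 nm (p-NA release from chromogenic substrate) with purified enzyme; equilibrium rates fit to competitive-inhibition equation → Ki, nM; mean of ≥3 runs.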

[5] = biological target: T4, Human tissue-type plasminogen activator (h t-PA) (Homo sapiens, UniProt P00750); assay: Inhibition of human tissue-type plasminogen activator (reference enzyme); type: biochemical
T4 construct: purchased Boehringer Ingelheim Actilyse
T4 sequence (P00750 36-562): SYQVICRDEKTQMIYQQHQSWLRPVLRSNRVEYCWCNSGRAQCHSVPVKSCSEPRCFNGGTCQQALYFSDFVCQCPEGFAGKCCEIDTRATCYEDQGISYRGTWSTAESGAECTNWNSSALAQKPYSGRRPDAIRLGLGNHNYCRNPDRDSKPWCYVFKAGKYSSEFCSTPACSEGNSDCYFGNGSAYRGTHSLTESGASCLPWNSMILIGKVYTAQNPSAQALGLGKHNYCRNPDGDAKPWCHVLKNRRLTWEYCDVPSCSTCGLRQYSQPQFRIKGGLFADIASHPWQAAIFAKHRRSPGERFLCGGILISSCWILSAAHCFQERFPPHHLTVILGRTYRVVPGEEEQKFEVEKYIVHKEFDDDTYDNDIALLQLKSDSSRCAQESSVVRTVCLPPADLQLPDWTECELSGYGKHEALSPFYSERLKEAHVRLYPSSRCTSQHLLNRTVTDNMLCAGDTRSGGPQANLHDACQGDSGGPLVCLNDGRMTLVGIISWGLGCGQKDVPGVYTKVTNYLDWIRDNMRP
Protocol: The equilibrium rates were used to calculate the inhibitor/enzyme dissociation constant (Ki values) by parameter fitting in accordance with the rate equation for competitive inhibition using GraFit (version 4 from Erithacus).
Dissociation constants were calculated as described herein.

[6] = biological target: T5, Human urinary kallikrein (h uKK) (Homo sapiens, UniProt P06870); assay: Inhibition of human urinary kallikrein (reference enzyme); type: biochemical; conditions: S-2266 substrate
T5 construct: purchased Lee Biosolutions
T5 sequence (P06870 25-262): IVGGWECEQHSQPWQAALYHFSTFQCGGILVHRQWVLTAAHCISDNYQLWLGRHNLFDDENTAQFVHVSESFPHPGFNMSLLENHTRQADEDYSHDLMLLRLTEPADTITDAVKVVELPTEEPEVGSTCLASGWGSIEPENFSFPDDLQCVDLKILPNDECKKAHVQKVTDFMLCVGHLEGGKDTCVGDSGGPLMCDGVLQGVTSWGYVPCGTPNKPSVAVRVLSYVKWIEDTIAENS
In short: as §1

[7] = biological target: T6, Subcomponent "r" of Human Complement Component 1 (h C1r) (Homo sapiens, UniProt P00736); assay: Inhibition of human C1r (reference enzyme); type: biochemical; conditions: S-2314 substrate; read-out: Ki h Clr
T6 construct: purchased Calbiochem
T6 sequence (P00736 464-705 limits assumed): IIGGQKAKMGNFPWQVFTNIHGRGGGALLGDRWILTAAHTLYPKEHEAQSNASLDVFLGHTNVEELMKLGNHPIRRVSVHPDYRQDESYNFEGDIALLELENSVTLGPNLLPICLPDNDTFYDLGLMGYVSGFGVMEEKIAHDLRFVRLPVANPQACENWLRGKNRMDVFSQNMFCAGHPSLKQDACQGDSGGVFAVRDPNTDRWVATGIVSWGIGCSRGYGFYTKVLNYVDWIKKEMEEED
T6 sequence (P00736 18-463 partner limits assumed): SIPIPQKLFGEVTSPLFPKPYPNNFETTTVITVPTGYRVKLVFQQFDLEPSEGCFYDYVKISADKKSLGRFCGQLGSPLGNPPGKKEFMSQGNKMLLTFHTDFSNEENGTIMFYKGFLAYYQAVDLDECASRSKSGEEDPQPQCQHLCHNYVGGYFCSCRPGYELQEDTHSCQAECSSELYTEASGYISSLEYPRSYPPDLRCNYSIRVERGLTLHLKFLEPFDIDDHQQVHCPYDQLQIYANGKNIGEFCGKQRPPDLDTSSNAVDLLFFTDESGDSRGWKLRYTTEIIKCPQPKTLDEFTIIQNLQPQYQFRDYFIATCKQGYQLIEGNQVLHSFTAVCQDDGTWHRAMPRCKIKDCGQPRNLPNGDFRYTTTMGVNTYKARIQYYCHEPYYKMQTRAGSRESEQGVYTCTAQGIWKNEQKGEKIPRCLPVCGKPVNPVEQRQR
In short: as §1

[8] = biological target: T7, Human urokinase type plasminogen activator (h u-PA) (Homo sapiens, UniProt P00749); assay: Inhibition of human urokinase type plasminogen activator (reference enzyme); type: biochemical; conditions: H-Glu-Gly-Arg-pNA substrate
T7 construct: purchased MEDAC GmbH Urokinase HS medac
In short: as §1

[9] = biological target: T8, Human plasma kallikrein (h PK) (Homo sapiens, UniProt P03952); assay: Inhibition of human plasma kallikrein (reference enzyme); type: biochemical; conditions: S2302 substrate
T8 construct: purchased Enzyme Research Laboratories
T8 sequence (P03952 391-638 limits assumed): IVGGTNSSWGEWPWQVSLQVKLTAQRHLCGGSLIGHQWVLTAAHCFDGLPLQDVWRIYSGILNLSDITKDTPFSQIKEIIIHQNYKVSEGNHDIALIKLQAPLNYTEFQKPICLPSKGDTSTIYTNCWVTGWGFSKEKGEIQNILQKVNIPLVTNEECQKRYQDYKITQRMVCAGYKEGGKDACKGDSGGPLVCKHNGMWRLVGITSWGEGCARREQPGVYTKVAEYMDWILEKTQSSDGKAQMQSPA
T8 sequence (P03952 20-390 partner limits assumed): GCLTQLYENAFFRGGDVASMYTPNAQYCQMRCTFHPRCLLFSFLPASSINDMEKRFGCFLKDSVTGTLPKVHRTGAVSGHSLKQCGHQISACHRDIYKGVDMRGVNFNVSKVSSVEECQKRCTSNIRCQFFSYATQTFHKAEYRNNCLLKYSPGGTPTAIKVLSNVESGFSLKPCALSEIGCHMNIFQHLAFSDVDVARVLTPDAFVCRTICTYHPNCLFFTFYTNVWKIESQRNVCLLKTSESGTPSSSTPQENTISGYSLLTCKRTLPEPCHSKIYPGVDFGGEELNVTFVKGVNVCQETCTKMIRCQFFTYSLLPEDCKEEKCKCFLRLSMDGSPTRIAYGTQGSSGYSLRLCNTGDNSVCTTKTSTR
In short: as §1

[10] = biological target: T9, Human Activated Protein C (h aPC) (Homo sapiens, UniProt P04070); assay: Inhibition of human activated protein C (reference enzyme); type: biochemical; conditions: Pefachrome PCa substrate
T9 construct: purchased Enzyme Research Laboratories
T9 sequence (P04070 212-450 limits assumed): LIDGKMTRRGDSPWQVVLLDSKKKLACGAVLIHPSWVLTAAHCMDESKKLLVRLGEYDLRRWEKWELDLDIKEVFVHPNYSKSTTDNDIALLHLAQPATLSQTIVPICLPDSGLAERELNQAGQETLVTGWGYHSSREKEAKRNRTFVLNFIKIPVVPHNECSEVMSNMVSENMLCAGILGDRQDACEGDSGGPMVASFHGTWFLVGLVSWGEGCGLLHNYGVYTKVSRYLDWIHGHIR
T9 sequence (P04070 43-197 partner limits assumed): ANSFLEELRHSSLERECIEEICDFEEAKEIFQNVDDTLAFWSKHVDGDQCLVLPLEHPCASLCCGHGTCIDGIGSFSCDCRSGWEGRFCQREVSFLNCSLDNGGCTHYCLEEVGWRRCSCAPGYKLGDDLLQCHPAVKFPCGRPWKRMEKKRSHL
In short: as §1

[11] = biological target: T10, Human plasmin (h plasmin) (Homo sapiens, UniProt P00747); assay: Inhibition of human plasmin (reference enzyme); type: biochemical; conditions: Chromozym PL substrate
T10 construct: purchased Calbiochem
T10 sequence (P00747 581-810 limits assumed): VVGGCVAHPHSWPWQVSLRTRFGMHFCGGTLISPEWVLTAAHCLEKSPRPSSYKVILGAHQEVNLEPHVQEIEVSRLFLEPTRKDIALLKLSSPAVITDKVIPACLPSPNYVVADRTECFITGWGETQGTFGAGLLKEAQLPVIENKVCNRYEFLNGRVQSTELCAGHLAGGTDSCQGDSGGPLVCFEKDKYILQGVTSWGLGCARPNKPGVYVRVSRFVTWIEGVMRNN
T10 sequence (P00747 97-580 partner limits assumed): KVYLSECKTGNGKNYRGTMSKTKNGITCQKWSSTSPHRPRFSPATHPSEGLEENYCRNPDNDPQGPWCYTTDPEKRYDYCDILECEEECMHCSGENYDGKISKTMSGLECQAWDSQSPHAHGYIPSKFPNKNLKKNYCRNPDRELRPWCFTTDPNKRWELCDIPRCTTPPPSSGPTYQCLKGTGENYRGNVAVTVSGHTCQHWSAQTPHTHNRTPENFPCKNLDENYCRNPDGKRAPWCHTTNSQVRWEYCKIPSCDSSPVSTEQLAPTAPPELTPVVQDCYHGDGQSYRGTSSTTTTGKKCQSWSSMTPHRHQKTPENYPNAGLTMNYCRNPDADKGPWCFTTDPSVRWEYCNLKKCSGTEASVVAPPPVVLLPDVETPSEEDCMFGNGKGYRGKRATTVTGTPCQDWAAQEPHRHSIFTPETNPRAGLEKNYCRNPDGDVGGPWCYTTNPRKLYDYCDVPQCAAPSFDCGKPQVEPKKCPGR
In short: as §1

[12] = Pefachrome tPA substrate, read-out: Ki h t-PA

Row | Compound | Ki [2] [µM] | Ki [3] [µM] | Ki [4] [µM] | Ki [5] [µM] | Ki [6] [µM] | Ki [7] [µM] | Ki [8] [µM] | Ki [9] [µM] | Ki [10] [µM] | Ki [11] [µM] | Ki [5, 12] [µM] | FXa/thrombin ratio [1]
1 | Cn1c(CNc2ccc(C(=N)N)cc2)nc2cc([C@@](C)(NCC(=O)O)C(=O)N3CCCC3)ccc21 [Tanogitran] | – | – | – | – | – | – | – | – | – | – | – | 0.1
2 | Cc1cccc(S(=O)(=O)Nc2ccc(C)n(CC(=O)NCCON=C(N)N)c2=O)c1 [RWJ445167] | – | – | – | – | – | – | – | – | – | – | – | < 0.02
3 | NCc1ccc(Cl)cc1CNC(=O)[C@@H]1CCCN1C(=O)[C@@H](CC(=O)N1CCCCC1)NS(=O)(=O)Cc1ccccc1 [Compound 2.41] | 0.00012 | 0.00011 | > 80 | – | > 40 | > 50 | > 50 | 0.605 | > 100 | 8 | > 15 | –

More lines, main results first:

Row | Ki [2] [µM] | Ki [3] [µM] | Ki [4] [µM] | Ki [5] [µM] | Ki [6] [µM] | Ki [7] [µM] | Ki [8] [µM] | Ki [9] [µM] | Ki [10] [µM] | Ki [11] [µM] | Ki [5, 12] [µM] | Compound | FXa/thrombin ratio [1]
4 | 0.023 | 0.003 | > 20 | > 50 | > 50 | > 100 | > 100 | 5.31 | > 10 | > 100 | – | CN(C(=O)C[C@@H](NS(=O)(=O)Cc1ccccc1)C(=O)N1CCC[C@H]1C(=O)NCc1cc(Cl)ccc1CN)C1CCNCC1 [Compound 2.3] | –
5 | 0.0069 | 0.001 | > 10 | – | > 50 | > 100 | > 100 | 2.55 | > 50 | > 30 | > 100 | CN(C(=O)CC[C@@H](NS(=O)(=O)Cc1ccccc1)C(=O)N1CCC[C@H]1C(=O)NCc1cc(Cl)ccc1CN)C1CCOCC1 [Compound 2.26] | –
6 | 0.002 | 0.00032 | > 100 | – | > 20 | > 10 | > 100 | 0.304 | > 100 | > 15 | > 50 | CN(CC1CCOCC1)C(=O)C[C@@H](NS(=O)(=O)Cc1ccccc1)C(=O)N1CCC[C@H]1C(=O)NCc1cc(Cl)ccc1CN [Compound 2.47, Bzls-D-Asp((tetrahydro-2H-pyran-4-yl)-N-methylmethanamine)-L-Pro-Amb(2-AMe-5-Cl)×2 TFA] | –
